Data set [1] deals with mice. Briefly: hypermotility provoked with amphetamine in mice (light interruption). The data set is classed as in vivo, mouse. Here is the method: (§1) The effect of 8-phenoxycarbonyl-3-hydrazinocarbonyl-oxy-nortropane exerted on the motilities of mice was tested according to the method of Borsy et al. (Arch. Int. Pharmacodyn. 124, 1- 2/1960/). The compound was administered orally in dosages of 20 to 80 mg/kg.
The above test method was applied also to study how 8-phenoxycarbonyl-3-hydrazinocarbonyloxy-nortropane does influence the hypermotility provoked with amphetamine (2-amino-1-phenyl-propane). Amphetamine was administered subcutaneously to mice in dosages of 7.5 mg/kg.

The subject of data set [2] is rats. Briefly: hypermotility provoked with amphetamine in rats (method of Janssen). Type of data set: in vivo, rat. On the procedure:
The effect of 8-phenoxycarbonyl-3-hydrazinocarbonyloxy-nortropane exerted on the hypermotility provoked with amphetamine on rats was examined by the method of Janssen (Psychopharmacologia 1, 389- 392/1960/). The stimulation of central nervous system was provoked with subcutaneous dosages of 7.5 mg/kg of amphetamine. The tests were performed on groups each consisting of 10 rats.

A short description of data set [3]: toxicity test on rats, observation for 7 days. The settings on record: rat, in vivo, po. On the procedure:
(§2) The toxicities and narcosis potentiating effects of the novel compounds having the general formula (I) were studied on rats weighing 120 to 150 g. In the toxicity tests the animals were kept under observation for 7 days. The narcosis potentiating effect was studied on animals treated with an intravenous dosage of 50 mg/kg of hexabarbital (5-/1-cyclohexenyl/-1',5-dimethylbarbituric acid), and the prolongation of sleeping period was recorded. A 150% prolongated of sleeping period in relation to the controls was regarded as positive response. The number of animals with positive responses was related to the total number of animals treated.

For data set [4], the system named is rats. Briefly: narcosis potentiating effect (prolongation of hexabarbital sleeping period). The data set is classed as in vivo. As to conditions: Rattus norvegicus, po, read-out: ED50 (narcosis potentiating effect). On the procedure:
as §2

For data set [5], the system named is mice. Briefly: effect on motility of mice (method of Borsy et al.). The settings on record: oral, 20 to 80 mg/kg. The data set is classed as in vivo, mouse. On the procedure: as §1
[6] abbreviates: 0.9% saline 20 ml/kg p.o. + amphetamine 7.5 mg/kg s.c.
The mark [7] stands for this setting: 0.9% saline 20 ml/kg s.c. + compound 40 mg/kg p.o., no amphetamine.
Setting [8] is: compound 40 mg/kg p.o. + amphetamine 7.5 mg/kg s.c.

Structures can show the parent of a compound that is named as a salt. Where two headings read alike, the source gives them in different places.

The LD50 is the dose at which mortality reaches 50%. The ED50 is the dose that gives a 50% effect, or the effect in half of the subjects.

Regarding `CC(N)Cc1ccccc1` (stereo not drawn) [Amphetamine, 2-amino-1-phenyl-propane, reference compound], the “Light interruption (average)” value with mice [1] (amphetamine 7.5 mg/kg s.c. + 5% carboxymethylcellulose solution) stood at 583. In the data set on rats [2] (setting [6]), the “Rearing (average)” value turned out to be 28.6, the “Triangle walked in (average)” value is listed as 28.5 and the “Washing (average)” value amounted to 2.7.
As for `CN(C)CCCN1c2ccccc2Sc2ccc(Cl)cc21` [Chloropromazine, 2-chloro-10-/3-dimethylaminopropyl/-phenothiazine, reference compound], in data set [3], the LD50 at 168 h came to 210 mg/kg. Further, in the data set on rats [4] (rats, hexabarbital 50 mg/kg i.v., 150% prolongation of sleeping period = positive response), the ED50 stood at 4.7 mg/kg.
In the case of `CCOC(=O)N1[C@@H]2CC[C@H]1C[C@@H](OC(=O)NN)C2` [Example 1, 8-Ethoxycarbonyl-3α-hydrazinocarbonyloxy-nortropane hydrochloride], the LD50 at 168 h in data set [3] is over 2000 mg/kg. The ED50 in the data set with rats [4] was 0.54 mg/kg.
Take `NNC(=O)O[C@H]1C[C@H]2CC[C@@H](C1)N2C(=O)Oc1ccccc1` [Example 3, 8-Phenoxycarbonyl-3α-hydrazinocarbonyloxy-nortropane]: in the data set with mice [5], the influence on motility result is “did not influence the motilities”. The “Light interruption (average)” value in the data set with mice [1] (amphetamine 7.5 mg/kg s.c. + compound 40 mg/kg p.o.) is 270; in the data set with mice [1] (amphetamine 7.5 mg/kg s.c. + compound 80 mg/kg p.o.), 175. Besides, the “inhibition of locomotor stimulating effect of amphetamine” value in the data set with mice [1] (mice, both dosages examined (40 and 80 mg/kg p.o.)) is reported as “completely inhibited”. The LD50 at 168 h in data set [3] was 5000 mg/kg. In addition, the “Rearing (average)” value with rats [2] (setting [7]) was 11.8; in the data set with rats [2] (setting [8]), 21.5. Also, the “Triangle walked in (average)” value stood at 16.1 in the data set with rats [2] (setting [7]) and 14.5 in the data set with rats [2] (setting [8]). In addition, the results for the “Washing (average)” value in the data set with rats [2] (setting [7]) and in the data set on rats [2] (setting [8]) were 3.3 and 0.6, respectively. Moreover, the ED50 in the data set with rats [4] was determined as 3 mg/kg.
For the molecule `CC(=O)N(NC(=O)OC1CC2CCC(C1)N2C(=O)Oc1ccccc1)C(C)=O` (stereo not drawn) [Example 14, 8-Phenoxycarbonyl-3α-(2',2'-diacetyl-hydrazinocarbonyloxy)-nortropane], the median lethal dose (LD50) at 168 h in data set [3] is over 1200 mg/kg. Besides, in the data set on rats [4], the ED50 was 1 mg/kg.
Turning to `O=C(CCCN1CCC(O)(c2ccc(Cl)cc2)CC1)c1ccc(F)cc1` [Haloperidol, 4-(4-chlorophenyl/-4-hydroxy-piperidyl)-4'-fluoro-butyrophenone, reference compound], the LD50 at 168 h in data set [3] is 450 mg/kg. Besides, the ED50 in the data set on rats [4] amounted to 2.8 mg/kg.

The record behind these values is patent US4127576A, “Nortropine-carbazate derivatives” (Egyt Gyogyszervegyeszeti Gyar, priority 1976, dated 1978).
